Laboratory results taken from PubChem BioAssay AID2060602 (Molecular Pharmacology Branch, DTP, NCI, 2025).

Test system: 648629-189-R-J1-PDC complex spheroids viability
Assay: Anticancer human tumor 648629-189-R-J1-PDC patient-derived bladder carcinoma cell line growth inhibition [CLK]
Details: for IC50: curve of first compound; for viability, T/C: stronger effect = lower value
How it was run: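 Patient-derived tumor cells grown as complex spheroids with HUVEC endothelial cells and mesenchymal stem cells, treated with drug combinations. Concentrations descend in half-log steps from near clinical Cmax, or from 10 microM if Cmax unknown.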
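For viability, T/C in this document: drug exposure lasted seven days before viability readout; 100% = DMSO vehicle control wells.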

Structure (SMILES): NC(=O)C(=Cn1cnc(-c2cc(C(F)(F)F)cc(C(F)(F)F)c2)n1)c1cncnc1 + CN1CCN(c2cc(C(=O)Nc3cc4cc(-c5cnn(C)c5)ccc4cn3)ccn2)CC1
- IC50 (second compound 0.0316 µM): 0.0544 µM
- IC50 (second compound 0.1 µM): 0.0533 µM
- IC50 (second compound 0.316 µM): < 0.00949 µM
- IC50 (second compound 1 µM): < 0.00949 µM
- IC50 (second compound 3.16 µM): < 0.00949 µM
- IC50 (second compound 10 µM): < 0.00949 µM
- viability, T/C (second compound 0.0316 µM, first compound 0.00949 µM): 113%
- viability, T/C (second compound 0.0316 µM, first compound 0.03 µM): 88.2%
- viability, T/C (second compound 0.0316 µM, first compound 0.0949 µM): 14.3%
- viability, T/C (second compound 0.0316 µM, first compound 0.3 µM): 2.66%
- viability, T/C (second compound 0.0316 µM, first compound 0.949 µM): 1.8%
- viability, T/C (second compound 0.0316 µM, first compound 3 µM): 1.61%
- viability, T/C (second compound 0.1 µM, first compound 0.00949 µM): 93.7%
- viability, T/C (second compound 0.1 µM, first compound 0.03 µM): 87.7%
- viability, T/C (second compound 0.1 µM, first compound 0.0949 µM): 12.2%
- viability, T/C (second compound 0.1 µM, first compound 0.3 µM): 2.12%
- viability, T/C (second compound 0.1 µM, first compound 0.949 µM): 0.68%
- viability, T/C (second compound 0.1 µM, first compound 3 µM): 0.92%
- viability, T/C (second compound 0.316 µM, first compound 0.00949 µM): 14.6%
- viability, T/C (second compound 0.316 µM, first compound 0.03 µM): 11.7%
- viability, T/C (second compound 0.316 µM, first compound 0.0949 µM): 3%
- viability, T/C (second compound 0.316 µM, first compound 0.3 µM): 0.3%
- viability, T/C (second compound 0.316 µM, first compound 0.949 µM): 0.08%
- viability, T/C (second compound 0.316 µM, first compound 3 µM): 1.52%
- viability, T/C (second compound 1 µM, first compound 0.00949 µM): 0.1%
- viability, T/C (second compound 1 µM, first compound 0.03 µM): 0.12%
- viability, T/C (second compound 1 µM, first compound 0.0949 µM): 0.12%
- viability, T/C (second compound 1 µM, first compound 0.3 µM): 0.07%
- viability, T/C (second compound 1 µM, first compound 0.949 µM): 0.06%
- viability, T/C (second compound 1 µM, first compound 3 µM): 0.63%
- viability, T/C (second compound 3.16 µM, first compound 0.00949 µM): 0.07%
- viability, T/C (second compound 3.16 µM, first compound 0.03 µM): 0.1%
- viability, T/C (second compound 3.16 µM, first compound 0.0949 µM): 0.12%
- viability, T/C (second compound 3.16 µM, first compound 0.3 µM): 0.12%
- viability, T/C (second compound 3.16 µM, first compound 0.949 µM): 0.79%
- viability, T/C (second compound 3.16 µM, first compound 3 µM): 0.75%
- viability, T/C (second compound 10 µM, first compound 0.00949 µM): 0.05%
- viability, T/C (second compound 10 µM, first compound 0.03 µM): 0.08%
- viability, T/C (second compound 10 µM, first compound 0.0949 µM): 0.17%
- viability, T/C (second compound 10 µM, first compound 0.3 µM): 0.2%
- viability, T/C (second compound 10 µM, first compound 0.949 µM): 1.48%
- viability, T/C (second compound 10 µM, first compound 3 µM): 0.19%

Structure (SMILES): Nc1ccccc1NC(=O)c1ccc(CNC(=O)OCc2cccnc2)cc1 + CN1CCN(c2cc(C(=O)Nc3cc4cc(-c5cnn(C)c5)ccc4cn3)ccn2)CC1
- IC50 (second compound 0.0316 µM): 1.87 µM
- IC50 (second compound 0.1 µM): 1.84 µM
- IC50 (second compound 0.316 µM): < 0.0316 µM
- IC50 (second compound 1 µM): < 0.0316 µM
- IC50 (second compound 3.16 µM): < 0.0316 µM
- IC50 (second compound 10 µM): < 0.0316 µM
- viability, T/C (second compound 0.0316 µM, first compound 0.0316 µM): 124%
- viability, T/C (second compound 0.0316 µM, first compound 0.1 µM): 125%
- viability, T/C (second compound 0.0316 µM, first compound 0.316 µM): 96.9%
- viability, T/C (second compound 0.0316 µM, first compound 1 µM): 72.2%
- viability, T/C (second compound 0.0316 µM, first compound 3.16 µM): 32.5%
- viability, T/C (second compound 0.0316 µM, first compound 10 µM): 1.56%
- viability, T/C (second compound 0.1 µM, first compound 0.0316 µM): 107%
- viability, T/C (second compound 0.1 µM, first compound 0.1 µM): 109%
- viability, T/C (second compound 0.1 µM, first compound 0.316 µM): 96.9%
- viability, T/C (second compound 0.1 µM, first compound 1 µM): 71.7%
- viability, T/C (second compound 0.1 µM, first compound 3.16 µM): 31%
- viability, T/C (second compound 0.1 µM, first compound 10 µM): 1.87%
- viability, T/C (second compound 0.316 µM, first compound 0.0316 µM): 37.4%
- viability, T/C (second compound 0.316 µM, first compound 0.1 µM): 46.7%
- viability, T/C (second compound 0.316 µM, first compound 0.316 µM): 39.1%
- viability, T/C (second compound 0.316 µM, first compound 1 µM): 33.8%
- viability, T/C (second compound 0.316 µM, first compound 3.16 µM): 7.95%
- viability, T/C (second compound 0.316 µM, first compound 10 µM): 0.08%
- viability, T/C (second compound 1 µM, first compound 0.0316 µM): 0.41%
- viability, T/C (second compound 1 µM, first compound 0.1 µM): 0.4%
- viability, T/C (second compound 1 µM, first compound 0.316 µM): 0.31%
- viability, T/C (second compound 1 µM, first compound 1 µM): 0.07%
- viability, T/C (second compound 1 µM, first compound 3.16 µM): 0.1%
- viability, T/C (second compound 1 µM, first compound 10 µM): 0.53%
- viability, T/C (second compound 3.16 µM, first compound 0.0316 µM): 0.08%
- viability, T/C (second compound 3.16 µM, first compound 0.1 µM): 1.97%
- viability, T/C (second compound 3.16 µM, first compound 0.316 µM): 0.1%
- viability, T/C (second compound 3.16 µM, first compound 1 µM): 0.07%
- viability, T/C (second compound 3.16 µM, first compound 3.16 µM): 0.07%
- viability, T/C (second compound 3.16 µM, first compound 10 µM): 2.02%
- viability, T/C (second compound 10 µM, first compound 0.0316 µM): 0.04%
- viability, T/C (second compound 10 µM, first compound 0.1 µM): 0.11%
- viability, T/C (second compound 10 µM, first compound 0.316 µM): 0.12%
- viability, T/C (second compound 10 µM, first compound 1 µM): 0.14%
- viability, T/C (second compound 10 µM, first compound 3.16 µM): 2.26%
- viability, T/C (second compound 10 µM, first compound 10 µM): 0.17%
